Data: BindingDB's records for doi:10.1021/jm060173k (Schering-Plough Research Institute, 2007)

molecular target: Genome polyprotein (Hepatitis C virus genotype 1a (isolate H77), UniProt P27958); assay: Continuous Spectrophotometric Assay; conditions: not given
Experimental: Proteolytic cleavage of the ester linkage between the Nva (L-norvaline) and the chromophore (PAP) was monitored for change in absorbance at 370 nm. Initial velocities were determined using linear regression and kinetic constants were obtained by fitting the data to the Michaelis-Menten equation.

Chain of Genome polyprotein (P27958 1027-1657 limits assumed): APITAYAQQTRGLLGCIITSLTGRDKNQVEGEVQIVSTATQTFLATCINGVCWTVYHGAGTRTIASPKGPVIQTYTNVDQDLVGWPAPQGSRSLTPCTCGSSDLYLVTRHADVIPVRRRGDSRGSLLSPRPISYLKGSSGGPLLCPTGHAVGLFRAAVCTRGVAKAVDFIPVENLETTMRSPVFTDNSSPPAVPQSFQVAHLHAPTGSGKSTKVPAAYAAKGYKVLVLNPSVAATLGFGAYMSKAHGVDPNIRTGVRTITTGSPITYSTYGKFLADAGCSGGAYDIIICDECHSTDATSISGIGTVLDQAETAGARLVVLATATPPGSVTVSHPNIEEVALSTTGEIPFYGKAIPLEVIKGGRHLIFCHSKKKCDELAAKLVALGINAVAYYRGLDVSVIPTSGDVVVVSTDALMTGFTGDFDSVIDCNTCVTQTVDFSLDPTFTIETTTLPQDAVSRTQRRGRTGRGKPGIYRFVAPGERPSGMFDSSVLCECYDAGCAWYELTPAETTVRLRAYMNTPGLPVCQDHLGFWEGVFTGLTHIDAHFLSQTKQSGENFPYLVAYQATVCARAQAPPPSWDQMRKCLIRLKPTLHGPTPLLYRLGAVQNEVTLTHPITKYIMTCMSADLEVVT

Row | Ki [nM] | SMILES
1 | 1000 | CC(C)CC(NC(=O)C(NC(=O)NC(C)(C)C)C(C)(C)C)C(=O)NC(CC1CCC1)C(=O)C(N)=O (stereo not given) [2-{2-[(tert-butylcarbamoyl)amino]-3,3-dimethylbutanamido}-N-(1-carbamoyl-3-cyclobutyl-1-oxopropan-2-yl)-4-methylpentanamide]
2 | 960 | CC(C)(C)NC(=O)NC(C(=O)N1C[C@@H]2OC(C)(C)[C@@H]2C1C(=O)NC(CC1CCC1)C(=O)C(N)=O)C(C)(C)C (stereo partly drawn) [3-{[(1R,5R)-3-{2-[(tert-butylcarbamoyl)amino]-3,3-dimethylbutanoyl}-7,7-dimethyl-6-oxa-3-azabicyclo[3.2.0]heptan-2-yl]formamido}-4-cyclobutyl-2-oxobutanamide]
3 | 50 | CC(C)(C)NC(=O)NC(C(=O)N1C[C@H]2[C@@H](C1C(=O)NC(CC1CC1(F)F)C(=O)C(N)=O)C2(C)C)C(C)(C)C (stereo partly drawn) [3-{[(1R,5S)-3-{2-[(tert-butylcarbamoyl)amino]-3,3-dimethylbutanoyl}-6,6-dimethyl-3-azabicyclo[3.1.0]hexan-2-yl]formamido}-4-(2,2-difluorocyclopropyl)-2-oxobutanamide]
4 | 115 | CC(C)(C)NC(=O)NC(C(=O)N1C[C@H]2[C@@H](C1C(=O)NC(CC1CC(F)(F)C1)C(=O)C(N)=O)C2(C)C)C(C)(C)C (stereo partly drawn) [3-{[(1R,5S)-3-{2-[(tert-butylcarbamoyl)amino]-3,3-dimethylbutanoyl}-6,6-dimethyl-3-azabicyclo[3.1.0]hexan-2-yl]formamido}-4-(3,3-difluorocyclobutyl)-2-oxobutanamide]
5 | 100 | CC(C)C(NC(=O)NC(C)(C)C)C(=O)N1C[C@H]2[C@@H](C1C(=O)NC(CC1CC1)C(=O)C(N)=O)C2(C)C (stereo partly drawn) [3-{[(1R,5S)-3-{2-[(tert-butylcarbamoyl)amino]-3-methylbutanoyl}-6,6-dimethyl-3-azabicyclo[3.1.0]hexan-2-yl]formamido}-4-cyclopropyl-2-oxobutanamide]
6 | 19 | CC(C)(C)NC(=O)NC(C(=O)N1C[C@H]2[C@@H](C1C(=O)NC(CC1CCC1)C(=O)C(N)=O)C2(Cl)Cl)C(C)(C)C (stereo partly drawn) [3-{[(1S,5R)-3-{2-[(tert-butylcarbamoyl)amino]-3,3-dimethylbutanoyl}-6,6-dichloro-3-azabicyclo[3.1.0]hexan-2-yl]formamido}-4-cyclobutyl-2-oxobutanamide]
7 | 140 | CC(C)(C)NC(=O)NC(C(=O)N1C[C@H]2[C@@H](C1C(=O)NC(CC1CCC1)C(=O)C(N)=O)C2(F)F)C(C)(C)C (stereo partly drawn) [3-{[(1S,5R)-3-{2-[(tert-butylcarbamoyl)amino]-3,3-dimethylbutanoyl}-6,6-difluoro-3-azabicyclo[3.1.0]hexan-2-yl]formamido}-4-cyclobutyl-2-oxobutanamide]
8 | 500 | CC(C)(C)NC(=O)NC(C(=O)N1C[C@@H]2OC(C)(C)C[C@@H]2C1C(=O)NC(CC1CCC1)C(=O)C(N)=O)C(C)(C)C (stereo partly drawn) [3-{[(3aR,6aR)-5-{2-[(tert-butylcarbamoyl)amino]-3,3-dimethylbutanoyl}-2,2-dimethyl-hexahydro-2H-furo[2,3-c]pyrrol-4-yl]formamido}-4-cyclobutyl-2-oxobutanamide]
9 | 38 | CC(=O)NC(C(=O)NC(C(=O)N1C[C@H]2[C@@H](C1C(=O)NC(CC1CCC1)C(=O)C(N)=O)C2(C)C)C(C)(C)C)C(C)C (stereo partly drawn) [N-{1-[(1R,5S)-2-[(1-carbamoyl-3-cyclobutyl-1-oxopropan-2-yl)carbamoyl]-6,6-dimethyl-3-azabicyclo[3.1.0]hexan-3-yl]-3,3-dimethyl-1-oxobutan-2-yl}-2-acetamido-3-methylbutanamide]
10 | 68 | CC(=O)NC(C(=O)NC(C(=O)N1C[C@H]2[C@@H](C1C(=O)NC(CC1CC1)C(=O)C(N)=O)C2(C)C)C1CCCCC1)C(C)C (stereo partly drawn) [N-{2-[(1R,5S)-2-[(1-carbamoyl-3-cyclopropyl-1-oxopropan-2-yl)carbamoyl]-6,6-dimethyl-3-azabicyclo[3.1.0]hexan-3-yl]-1-cyclohexyl-2-oxoethyl}-2-acetamido-3-methylbutanamide]
11 | 230 | CCOC(=O)NC(C(=O)N1C[C@H]2[C@@H](C1C(=O)NC(CC1CC1)C(=O)C(N)=O)C2(C)C)C1CCCCC1 (stereo partly drawn) [ethyl N-{2-[(1R,5S)-2-[(1-carbamoyl-3-cyclopropyl-1-oxopropan-2-yl)carbamoyl]-6,6-dimethyl-3-azabicyclo[3.1.0]hexan-3-yl]-1-cyclohexyl-2-oxoethyl}carbamate]
12 | 800 | COC(=O)NC(C(=O)N1C[C@H]2[C@@H](C1C(=O)NC(CC1CC1)C(=O)C(N)=O)C2(C)C)C1CCCCC1 (stereo partly drawn) [methyl N-{2-[(1R,5S)-2-[(1-carbamoyl-3-cyclopropyl-1-oxopropan-2-yl)carbamoyl]-6,6-dimethyl-3-azabicyclo[3.1.0]hexan-3-yl]-1-cyclohexyl-2-oxoethyl}carbamate]
13 | 60 | CC(C)OC(=O)NC(C(=O)N1C[C@H]2[C@@H](C1C(=O)NC(CC1CC1)C(=O)C(N)=O)C2(C)C)C1CCCCC1 (stereo partly drawn) [propan-2-yl N-{2-[(1R,5S)-2-[(1-carbamoyl-3-cyclopropyl-1-oxopropan-2-yl)carbamoyl]-6,6-dimethyl-3-azabicyclo[3.1.0]hexan-3-yl]-1-cyclohexyl-2-oxoethyl}carbamate]

same assay, conditions: pH 6.5; 30 °C

Row | Ki [nM] | SMILES
14 | 54 | CCCC(NC(=O)C1[C@@H]2[C@H](CN1C(=O)C(NC(=O)NC(C)(C)C)C1CCCCC1)C2(C)C)C(=O)C(N)=O (stereo partly drawn) [3-{[(1R,5S)-3-{2-[(tert-butylcarbamoyl)amino]-2-cyclohexylacetyl}-6,6-dimethyl-3-azabicyclo[3.1.0]hexan-2-yl]formamido}-2-oxohexanamide]
15 | 100 | CC(C)(C)NC(=O)NC(C(=O)N1C[C@H]2[C@@H](C1C(=O)NC(C(=O)C(N)=O)C1CCC1)C2(C)C)C(C)(C)C (stereo partly drawn) [3-{[(1R,5S)-3-{2-[(tert-butylcarbamoyl)amino]-3,3-dimethylbutanoyl}-6,6-dimethyl-3-azabicyclo[3.1.0]hexan-2-yl]formamido}-3-cyclobutyl-2-oxopropanamide]
16 | 360 | CCCCC(NC(=O)C1[C@@H]2[C@H](CN1C(=O)C(NC(=O)OC(C)(C)C)C(C)(C)C)C2(C)C)C(=O)C(N)=O (stereo partly drawn) [tert-butyl N-{1-[(1R,5S)-2-[(1-carbamoyl-1-oxohexan-2-yl)carbamoyl]-6,6-dimethyl-3-azabicyclo[3.1.0]hexan-3-yl]-3,3-dimethyl-1-oxobutan-2-yl}carbamate]
17 | 220 | CCCC(NC(=O)C1[C@@H]2[C@H](CN1C(=O)C(NC(=O)OC(C)(C)C)C(C)(C)C)C2(C)C)C(=O)C(N)=O (stereo partly drawn) [tert-butyl N-{1-[(1R,5S)-2-[(1-carbamoyl-1-oxopentan-2-yl)carbamoyl]-6,6-dimethyl-3-azabicyclo[3.1.0]hexan-3-yl]-3,3-dimethyl-1-oxobutan-2-yl}carbamate]
18 | > 69000 | CC(C)(C)OC(=O)NC(C(=O)N1C[C@H]2[C@@H](C1C(=O)NC(C(=O)C(N)=O)C(C)(C)C)C2(C)C)C(C)(C)C (stereo partly drawn) [tert-butyl N-{1-[(1R,5S)-2-[(1-carbamoyl-3,3-dimethyl-1-oxobutan-2-yl)carbamoyl]-6,6-dimethyl-3-azabicyclo[3.1.0]hexan-3-yl]-3,3-dimethyl-1-oxobutan-2-yl}carbamate]
19 | > 3300 | CC(C)(C)CC(NC(=O)C1[C@@H]2[C@H](CN1C(=O)C(NC(=O)OC(C)(C)C)C(C)(C)C)C2(C)C)C(=O)C(N)=O (stereo partly drawn) [tert-butyl N-{1-[(1R,5S)-2-[(1-carbamoyl-4,4-dimethyl-1-oxopentan-2-yl)carbamoyl]-6,6-dimethyl-3-azabicyclo[3.1.0]hexan-3-yl]-3,3-dimethyl-1-oxobutan-2-yl}carbamate]
20 | 480 | CC(C)CC(NC(=O)C1[C@@H]2[C@H](CN1C(=O)C(NC(=O)OC(C)(C)C)C(C)(C)C)C2(C)C)C(=O)C(N)=O (stereo partly drawn) [tert-butyl N-{1-[(1R,5S)-2-[(1-carbamoyl-4-methyl-1-oxopentan-2-yl)carbamoyl]-6,6-dimethyl-3-azabicyclo[3.1.0]hexan-3-yl]-3,3-dimethyl-1-oxobutan-2-yl}carbamate]
